US20100152150A1, “THE APPLICATION OF MARINE STEROID IN PREPARING THE MEDICINE OF TREATING NEURONS DAMAGING” (priority 2006, published 2010)

How the values were obtained:
[1] = system: rat cerebellar granule neurons (CGNs); assay: Hypoxia/reoxygenation (H/R) induced death of in vitro cultured cerebellar granule neurons; assay type: cell-based; settings: for CGNs morphology under inverted fluorescence microscope: pre-treated 3 h with 10 μM MK801 or 12 μM YC-1 or 12 μM YC-2, then 3 h hypoxia and 24 h reoxygenation
Procedure: 1) Culture of Rat Cerebellar Granule Neurons (CGNs)
According to Yan, etc, the neurons were prepared as follows:
(1) A clean 7-8 d SD rat weighing about 15-20 g was taken and the cerebella was separated under sterile condition.
(2) The meninges and vessels were gotten rid of in Kreb's anatomy solution (Ca^2+ and Mg^2+ free).
(3) The cerebella was sheared into pieces of 1 mm^3 with ophthalmic scissors.
(4) Digested in 0.25 g/L trypsin solution for 15 min at 37.
(5) The digestion was stopped with solution containing 0.5 g/L trypsin inhibitor and 0.05 g/L Dnase I and pipetted up and down to get single cell suspension.
(6) The single cell suspension was centrifuged at 200 g for 5 min, the precipitation was rinsed once with rinse solution.
(7) Span down again at 200 g for 5 min, the supernatant was discarded.
(8) The cell pellet was diluted to cell density of 1.5-1.8×10^6 cells/ml with BME medium containing 10% (v/v) FBA and 25 mM KCl.
(9) They were inoculated into cell culture dishes pre-coated with polylysine and incubated at 370 incubator with 5% CO2.
(10) Twenty-four hours after inoculation, 10 μmol/L Ara-C was added to inhibit non-neuron cells' growth and proliferation and to make the purity of CGNs above 95%.
(11) Glucose was added to 5 mM on day 7 incubation to supplement energy needed by cell metabolism.
(12) The experiment on day 8.
2). Establishment of CGNs Hypoxia/Reoxygenation (H/R) Injury Model
Referred to Seko (Seko Y, To be K, Ueki K, et al. Hypoxia and hypoxia/reoxygenation activate Raf-1, mitogen-activated protein kinase kinase, mitogen-activated protein kinases, and S6 kinase in cultured rat cardiac myocytes. Circ Res. 1996 January; 78(1):82-90) etc for the establishment method:
(1) On day 8, the treated CGNs were put in airtight box with oxygen consumption reagent and indicator and incubated at 37° for 3 h.
(2) The cells were transferred to 370 incubator with 5% CO2 for reoxygenation treatment.
(3). Cell morphological observation and neuron viability measurement
The following were done referring to Yan (Yan G M, Irwin R P, Lin S Z, et al. Diphenylhydantoin induces apoptotic cell death of cultured rat cerebellar granule neurons. J Pharmacol Exp Ther, 1995, 274(2): 983-8) et al.:
(1) CGNs were cultured in 35 mm dishes, on day 8, the medium was removed after various factors treatment, the cells were rinsed twice with 4 PBS containing Ca^2+ and Mg^2+.
(2) The cells were fixed with 40 g/L paraformaldehyde (40, dissolved in PBS) for 10 min.
(3) The fixation solution was removed, the cells were rinsed twice with distilled water, air dried at 4°.
(4) The cell morphological change was observed and randomly photographed under inverted fluorescence microscope (Olympus).

[2] = system: rat cerebellar granule neurons (CGNs); assay: Glutamic acid (Glu) induced death of in vitro cultured cerebellar granule neurons; assay type: cell-based
Source text: (1) Isolatation and primary culture of rat CGNs.
(2) Morphology observation of neuron cell body and processes under phase contrast microscopy.
(3) Analysis of neuronal metabolic activity and viability using fluorescein diacetate (FDA) staining.

[3] = system: SD rats with permanent middle cerebral artery occlusion (MCAO); assay: MCAO induced rat cerebral ischemia model; assay type: in vivo
Procedure: Method: Preparation of Rat Middle Cerebral Artery Occlusion (MCAO) Model
25 healthy male SD rats were divided into 3 groups randomly: YC-1 group (n=11): 10 min, 6 h, 24 h and 7 d after occluding the middle cerebral artery, 12 mg/Kg YC-1 was continuously injected intraperitoneally. DMSO group (n=11): same volume of DMSO (1 ml/Kg) was injected in the same way. Sham group (n=3): just very short intraluminal thread was inserted and didn't occlude the MCA.
The following method was a modification of Zea Longa's method (Longa E Z, Weinstein P R, Carlson S, Cummins R. Reversible middle cerebral artery occlusion without craniectomy in rats. Stroke, 1989, 20: 84-91).
(1) The rats drinked freely but fasted one night before the operation.
(2) 10 min before anesthesia, atropine sulfate (0.5 mg/Kg) was intraperitoneally (ip) injected.
(3) Narcotized the rat with ip injected 10% chloral hydrate, 3.5 ml anesthetic per Kg rat; The areflexia of hindlimb retraction and corneal were used as anesthesia index. […]
(7) Rectum temperature was measured by using Meikangti electronic temperature measure instrument the whole process and it was strictly controlled at 36.5-37.5°. […]

[4] = system: rat cerebellar granule neurons (CGNs); assay: Repolarization (low potassium, LK) induced death of in vitro cultured cerebellar granule neurons; assay type: cell-based
Procedure: The methods for rat CGNs cell culture, cellular morphologic observation and neuronal viability measurement were the same as above. Then check the in vitro cultured cerebellar granule neurons death through agarose gel electrophoresis according to reference:
(1) CGNs in […] dishes were inoculated.
(2) On day 8, 24 h after adding various medicines, the medium was removed, the cells were rinsed twice with PBS.
(3) The collected cells were spun down with a low temperature high speed centrifuge (Biofuge22R, Heraeus, Germany) at 5000 rpm, 4° for 5 min.
(4) the cell pellet was resuspended with 600 μl buffer containing 10 mmol/L Tris-HCl, 10 mmol/L EDTA and 2 g/L Triton X-100 (pH 7.5) and incubated for 15 min.
(6) The supernatant was extracted once with equal volume of phenol and spun down.
(7) The supernatant was extracted once with equal volume of phenol-chloroform (1:1), spun down.
(8) The supernatant was taken, 300 mmol/L Sodium Acetate and equal volume of isopropanol were added and precipitated for overnight.
(9) The pellet was spun down and rinsed 2-3 times with 70% ethanol.
(10) After drying, some TE (Tris 10 mmol L^−1, EDTA 1.0 mmol L^−1, pH 7.4, and 0.6 g·L^−1 RNase A) were added and incubated at 37° for 30 min.
(11) The samples were analyzed with 20 g/L agarose gel electrophoresis for 1 h.
(12) Dyed with ethidium bromide and photographed under UV light.

[5] = system: New Zealand white rabbits with spinal cord ischemia; assay: Abdominal aorta clipping induced rabbit spinal cord ischemia model; assay type: in vivo; settings: 8 mg/Kg intravenous 30 min before ischemia
Procedure: Method: Preparation of spinal cord ischemia model.
24 male New Zealand white rabbits were divided evenly into 3 groups (n=8):
YC-1 group: 30 min before spinal cord ischemia, 8 mg/Kg YC-1 was intravenous injected through the rabbit's ear. DMSO group: same volume of DMSO (1 ml/Kg) was injected in the same way.
Sham group: the abdominal aorta was exposed but wasn't clipped.
Referring to Johnson etc, the model was prepared as follows:
(1) The rabbits drinked freely but fasted one night before the operation.
(2) The rabbit was anesthetized by injecting 3% sodium pentobarbital (30 mg/Kg) by ear intravenous. On the other side of the ear a vein-detaining needle (24 G) was set for medicine and other fluid infusion.
(3) An artery-detaining needle (24 G) was set in the right ear artery for monitoring the proximal arterial pressure and blood sampling during the operation.
(4) An artery-detaining needle (24 G) was set in a femoral artery for monitoring the distal arterial pressure during the operation.
(5) The rabbit was supinely fixed and incised at the median abdomen; the abdominal aorta was exposed.
(6) Injected heparin (150 U/Kg) through the vein-detaining needle, then the abdominal aorta was clipped at the 0.5-1.0 cm spot below origin of the left renal artery to cause spinal cord ischemia.
(7) Once the abdominal aorta was blocked, the distal arterial pressure decreased immediately and the femoral arterial pulsation disappeared.
(8) The clip was removed 20 min after ischemia and the abdomen was sutured.
(9) Then intramuscularly injected 40,000 U gentamicin, the rabbit was returned back to cage and observed for 48 h.
(10) The proximal arterial pressure, distal arterial pressure and heart rate (Spacelab, US) were continuously monitored during the operation. Rectum temperature was maintained at 38.5±0.5° by using heating pad and roasting lamp.
(11) Blood gas (AVL-2, Switzerland) and glucose (One Touch II, USA) were monitored by ear artery blood sampling 10 min before ischemia, 10 min after ischemia and 10 min after reperfusion.

| Structure (SMILES) | viability at 10 µM ([1]; Rattus norvegicus, Neuron, 10 μM MK801 or 12 μM YC-1 or 12 μM YC-2, then H/R, H/R alone 16.56±3.21%, read-out: neuronal viability (FDA dye)) | CGNs morphology under inverted fluorescence microscope [1] | Glu induced CGNs apoptosis (phase contrast microscopy) ([2]; 12 μM added 1 h before 150 μM Glu, observed 24 h later) | CGNs' viability (FDA staining) ([2]; 12 μM, 150 μM Glu 24 h, Glu control group 29.5±8.23%) | neuronal viability (FDA dye) ([1]; 10 μM MK801 or 12 μM YC-1 or 12 μM YC-2, then H/R, H/R alone 16.56±3.21%) | nuclear morphology (Hoechst33258 dye) ([1]; 12 μM, then H/R treatment) | brain tissue colour and morphology by visual inspection ([3]; rat MCAO, 12 mg/Kg intraperitoneally, DMSO group showed obvious pallor and swelling) | infarct size (TTC dye) ([3]; rat permanent MCAO, 12 mg/Kg YC-1 intraperitoneally at 10 min, 6 h, 24 h and 7 d after occlusion, DMSO group 62±8%) | CGNs morphology (cell bodies and processes) ([4]; 12 μM added 3 h before and at change to 5 mM KCl serum free medium, 24 h) | CGNs survived (FDA staining) ([4]; 12 μM added 3 h before and at change to 5 mM KCl serum free medium, 24 h, low potassium alone 40.2±14.04%) | DNA fragments produced from LK induced CGNs apoptosis (agarose gel electrophoresis) ([4]; FIG. 18) | rabbits able to stand (hindlimb function) ([5]; rabbit spinal cord ischemia 20 min, n=8, no rabbit in DMSO group could stand) | neurological function score ([5]; rabbit spinal cord ischemia, each observation time point, versus DMSO group, p<0.05) | lumbar spinal cord injury (histopathological examination) ([5]; rabbit spinal cord ischemia, versus DMSO group) | number of normal spinal cord anterior horn neurons ([5]; rabbit spinal cord ischemia, versus DMSO group, p<0.01) |
| --- | --- | --- | --- | --- | --- | --- | --- | --- | --- | --- | --- | --- | --- | --- | --- |
| C[C@]12N[C@H](Cc3ccccc31)c1ccccc12 [MK801, reference compound] | 86.7 ± 3.21% | Most CGNs cell body kept intact, plump and lucent |  |  |  |  |  |  |  |  |  |  |  |  |  |
| C=C(CC[C@@H](C)[C@H]1CC[C@H]2[C@@H]3C[C@@H](O)[C@@]4(O)C[C@@H](O)CC[C@]4(CO)[C@H]3CC[C@]12C)C(C)C [YC-1, 24-methylene-cholest-3β,5α,6β,19-tetrol] |  | Most CGNs cell body kept intact, plump and lucent | obviously inhibited Glu induced CGNs apoptosis | 92.6±2.59% | 84.29±1.26% | Most CGNs showed normal nuclear morphology and even chromatin distribution | no obvious pallor and swelling | 32±11% | most CGNs kept intact cell bodies and processes | 94.3±14.02% | can reduce DNA fragments | Six rabbits in the CPA (YC-1) group could stand | obviously higher than that in DMSO group | obviously relieved | increased evidently |
